Measurements: ChEMBL document CHEMBL5291721, “A preclinical secondary pharmacology resource illuminates target-adverse drug reaction associations of marketed drugs” (Nat Commun, 2023)

Key:
B2 bradykinin receptor = target: T1, B2 bradykinin receptor (Homo sapiens, UniProt P30411)
T1 sequence (P30411 whole entry): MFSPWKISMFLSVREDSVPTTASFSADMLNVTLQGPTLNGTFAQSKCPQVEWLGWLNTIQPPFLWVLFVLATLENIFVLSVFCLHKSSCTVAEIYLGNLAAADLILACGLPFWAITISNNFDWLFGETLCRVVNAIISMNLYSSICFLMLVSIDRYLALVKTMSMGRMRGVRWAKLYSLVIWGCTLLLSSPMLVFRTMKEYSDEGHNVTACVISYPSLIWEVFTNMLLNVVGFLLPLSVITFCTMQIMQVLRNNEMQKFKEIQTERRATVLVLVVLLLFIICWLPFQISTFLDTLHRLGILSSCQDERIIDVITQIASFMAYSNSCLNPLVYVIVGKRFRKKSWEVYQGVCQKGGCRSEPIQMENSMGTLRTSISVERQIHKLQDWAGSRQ

[1] = target: 5-hydroxytryptamine receptor 2B (Homo sapiens, UniProt P41595); assay type: functional, cell-based
Chain of 5-hydroxytryptamine receptor 2B (P41595 whole entry): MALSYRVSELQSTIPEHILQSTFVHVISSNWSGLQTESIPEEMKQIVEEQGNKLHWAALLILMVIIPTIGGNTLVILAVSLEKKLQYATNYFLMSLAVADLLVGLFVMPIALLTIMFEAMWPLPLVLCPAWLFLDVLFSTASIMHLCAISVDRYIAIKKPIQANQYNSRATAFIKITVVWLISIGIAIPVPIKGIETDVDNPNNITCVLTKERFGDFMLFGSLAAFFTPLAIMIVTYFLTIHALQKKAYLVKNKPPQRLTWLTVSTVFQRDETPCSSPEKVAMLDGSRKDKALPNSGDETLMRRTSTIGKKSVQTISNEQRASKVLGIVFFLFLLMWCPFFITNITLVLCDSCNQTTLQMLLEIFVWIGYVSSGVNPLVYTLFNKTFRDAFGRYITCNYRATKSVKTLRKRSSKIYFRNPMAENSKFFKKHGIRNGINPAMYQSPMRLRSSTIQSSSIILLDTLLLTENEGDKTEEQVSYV

Melanocortin receptor 3 = Melanocortin receptor 3 (Homo sapiens, UniProt P41968)
Chain of Melanocortin receptor 3 (P41968 whole entry): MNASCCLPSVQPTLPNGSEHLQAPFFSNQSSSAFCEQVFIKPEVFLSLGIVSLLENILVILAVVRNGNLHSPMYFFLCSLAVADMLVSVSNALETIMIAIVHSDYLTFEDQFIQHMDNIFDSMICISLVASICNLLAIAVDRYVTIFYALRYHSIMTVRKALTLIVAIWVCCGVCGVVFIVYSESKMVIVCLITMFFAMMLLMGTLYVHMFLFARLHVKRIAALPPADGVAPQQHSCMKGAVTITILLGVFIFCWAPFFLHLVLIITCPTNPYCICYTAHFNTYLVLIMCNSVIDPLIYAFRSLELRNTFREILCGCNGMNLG

[2] = target: T2, Neuropeptide Y receptor type 1 (Homo sapiens, UniProt P25929)
T2 sequence (P25929 whole entry): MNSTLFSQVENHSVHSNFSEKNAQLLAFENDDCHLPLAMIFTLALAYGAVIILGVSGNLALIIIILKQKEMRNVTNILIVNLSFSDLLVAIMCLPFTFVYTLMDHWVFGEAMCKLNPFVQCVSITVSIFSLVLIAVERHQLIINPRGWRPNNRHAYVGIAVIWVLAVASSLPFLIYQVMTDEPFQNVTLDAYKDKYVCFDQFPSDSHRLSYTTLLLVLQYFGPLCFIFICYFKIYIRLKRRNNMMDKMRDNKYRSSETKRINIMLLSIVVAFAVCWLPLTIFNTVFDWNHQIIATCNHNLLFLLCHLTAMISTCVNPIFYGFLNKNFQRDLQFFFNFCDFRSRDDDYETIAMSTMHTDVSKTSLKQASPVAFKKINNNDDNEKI

[3] = target: Kappa-type opioid receptor (Homo sapiens, UniProt P41145)
Chain of Kappa-type opioid receptor (P41145 whole entry): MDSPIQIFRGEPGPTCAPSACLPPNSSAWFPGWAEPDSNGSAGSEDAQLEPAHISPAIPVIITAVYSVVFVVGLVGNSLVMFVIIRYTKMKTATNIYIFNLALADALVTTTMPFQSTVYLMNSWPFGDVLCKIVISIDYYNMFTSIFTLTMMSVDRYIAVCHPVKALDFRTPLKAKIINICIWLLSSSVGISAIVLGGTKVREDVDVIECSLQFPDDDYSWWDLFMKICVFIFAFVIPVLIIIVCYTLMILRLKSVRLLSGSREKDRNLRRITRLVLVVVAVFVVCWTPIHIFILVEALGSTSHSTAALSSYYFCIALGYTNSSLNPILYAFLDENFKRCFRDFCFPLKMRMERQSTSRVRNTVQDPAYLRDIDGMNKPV

Progesterone receptor [4] = target: T3, Progesterone receptor (Homo sapiens, UniProt P06401); assay type: functional
T3 sequence (P06401 whole entry): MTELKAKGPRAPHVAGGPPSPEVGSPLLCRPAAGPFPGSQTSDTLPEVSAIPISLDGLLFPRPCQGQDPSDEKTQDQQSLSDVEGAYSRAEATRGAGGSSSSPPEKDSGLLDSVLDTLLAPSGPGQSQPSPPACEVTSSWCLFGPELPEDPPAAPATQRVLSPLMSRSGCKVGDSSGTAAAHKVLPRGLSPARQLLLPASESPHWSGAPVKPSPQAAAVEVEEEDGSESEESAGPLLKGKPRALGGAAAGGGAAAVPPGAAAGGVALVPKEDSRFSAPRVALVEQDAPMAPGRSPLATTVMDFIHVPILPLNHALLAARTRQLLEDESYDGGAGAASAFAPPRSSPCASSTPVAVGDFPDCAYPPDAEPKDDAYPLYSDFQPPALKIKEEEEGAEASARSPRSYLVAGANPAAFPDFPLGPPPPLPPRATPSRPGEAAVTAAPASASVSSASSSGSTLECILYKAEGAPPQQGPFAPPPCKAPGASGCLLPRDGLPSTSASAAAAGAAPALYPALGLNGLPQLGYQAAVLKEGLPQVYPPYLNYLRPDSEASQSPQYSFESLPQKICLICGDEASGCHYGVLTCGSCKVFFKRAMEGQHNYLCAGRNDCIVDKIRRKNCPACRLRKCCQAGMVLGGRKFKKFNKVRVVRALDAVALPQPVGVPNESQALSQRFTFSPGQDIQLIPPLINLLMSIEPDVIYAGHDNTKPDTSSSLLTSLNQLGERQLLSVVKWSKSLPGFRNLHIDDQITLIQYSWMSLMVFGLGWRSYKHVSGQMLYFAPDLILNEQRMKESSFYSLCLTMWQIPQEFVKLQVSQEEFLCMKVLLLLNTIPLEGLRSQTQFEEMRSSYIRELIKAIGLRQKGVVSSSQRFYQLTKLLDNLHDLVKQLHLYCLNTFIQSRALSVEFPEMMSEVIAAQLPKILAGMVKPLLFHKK

Progesterone receptor [5] = target: T3, Progesterone receptor; assay type: functional; remark: listed apart in the source
[6] = target: T4, Equilibrative nucleoside transporter 1 (Homo sapiens, UniProt Q99808)
T4 sequence (Q99808 whole entry): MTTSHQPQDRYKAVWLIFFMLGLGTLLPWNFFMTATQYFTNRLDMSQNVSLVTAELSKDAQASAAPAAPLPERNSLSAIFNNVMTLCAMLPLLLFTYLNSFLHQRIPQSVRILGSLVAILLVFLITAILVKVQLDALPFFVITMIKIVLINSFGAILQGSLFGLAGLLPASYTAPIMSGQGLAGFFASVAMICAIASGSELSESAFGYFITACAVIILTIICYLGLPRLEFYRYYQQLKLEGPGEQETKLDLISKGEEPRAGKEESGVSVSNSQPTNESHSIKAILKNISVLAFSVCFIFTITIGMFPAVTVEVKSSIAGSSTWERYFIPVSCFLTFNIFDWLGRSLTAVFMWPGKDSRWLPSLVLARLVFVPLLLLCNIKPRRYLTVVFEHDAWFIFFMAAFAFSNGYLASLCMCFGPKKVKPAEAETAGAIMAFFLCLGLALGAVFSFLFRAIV

[7] = target: T5, Muscarinic acetylcholine receptor M2 (Homo sapiens, UniProt P08172); assay type: functional, cell-based
T5 sequence (P08172 whole entry): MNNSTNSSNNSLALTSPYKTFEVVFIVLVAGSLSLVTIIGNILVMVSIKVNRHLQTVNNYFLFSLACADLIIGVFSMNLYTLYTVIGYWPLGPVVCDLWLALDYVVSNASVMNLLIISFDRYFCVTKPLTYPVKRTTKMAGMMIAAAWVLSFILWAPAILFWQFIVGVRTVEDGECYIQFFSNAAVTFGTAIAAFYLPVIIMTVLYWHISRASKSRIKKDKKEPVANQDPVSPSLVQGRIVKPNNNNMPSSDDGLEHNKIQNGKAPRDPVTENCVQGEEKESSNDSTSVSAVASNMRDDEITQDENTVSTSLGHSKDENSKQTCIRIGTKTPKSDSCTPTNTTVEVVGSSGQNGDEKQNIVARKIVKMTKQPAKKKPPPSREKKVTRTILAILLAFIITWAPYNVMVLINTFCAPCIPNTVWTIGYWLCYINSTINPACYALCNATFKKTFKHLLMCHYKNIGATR
Note: assay procedure not described here.

Structure (SMILES) | AC50 (B2 bradykinin receptor) | AC50 [1] | AC50 (Melanocortin receptor 3) | AC50 ([2]; read-out: AC50) | AC50 [3] | AC50 (Progesterone receptor [4]) | AC50 (Progesterone receptor [5]) | AC50 [6] | AC50 [7] | AC50 [2]
CC(C)Cc1ccc(C(C)C(=O)O)cc1 (stereo not drawn) [IBUPROFEN] | > 30 µM | > 10 µM | > 30 µM | > 30 µM | > 10 µM |  |  | > 30 µM | > 10 µM | 
CO[C@H]1/C=C/O[C@@]2(C)Oc3c(C)c(O)c4c(O)c(c(/C=N/N5CCN(C)CC5)c(O)c4c3C2=O)NC(=O)/C(C)=C\C=C\[C@H](C)[C@H](O)[C@@H](C)[C@@H](O)[C@@H](C)[C@H](OC(C)=O)[C@@H]1C [RIFAMPIN] | 18.6 µM | > 30 µM | > 30 µM | 22.5 µM | > 30 µM | > 30 µM |  | 12.4 µM | > 10 µM | 
CC(S)C(=O)NCC(=O)O (stereo not drawn) [TIOPRONIN] |  | > 30 µM | > 30 µM |  |  | > 30 µM | > 30 µM | > 30 µM | > 30 µM | 
C[C@H](CCC(=O)O)[C@H]1CC[C@H]2[C@@H]3[C@@H](O)C[C@@H]4C[C@H](O)CC[C@]4(C)[C@H]3CC[C@]12C [URSODIOL] |  | > 30 µM | > 30 µM |  |  |  |  | > 30 µM | > 30 µM | 

Continued, values first:

AC50 (B2 bradykinin receptor) | AC50 [1] | AC50 (Melanocortin receptor 3) | AC50 ([2]; read-out: AC50) | AC50 [3] | AC50 (Progesterone receptor [4]) | AC50 (Progesterone receptor [5]) | AC50 [6] | AC50 [7] | AC50 [2] | Structure (SMILES)
> 30 µM | > 30 µM | > 30 µM | > 30 µM | > 30 µM | > 30 µM | > 30 µM | > 30 µM |  |  | CN(C)CCC[C@@]1(c2ccc(F)cc2)OCc2cc(C#N)ccc21 [ESCITALOPRAM]
> 30 µM | 1.16 µM | > 30 µM | > 30 µM | 4 µM |  |  | > 30 µM | > 10 µM |  | C=C[C@H]1C[N@@]2CC[C@H]1C[C@@H]2[C@@H](O)c1ccnc2ccc(OC)cc12 [QUINIDINE]
> 30 µM | 14 µM | > 30 µM | > 30 µM | > 30 µM |  |  | > 30 µM | > 30 µM |  | CN(C)CCc1c[nH]c2ccc(Cn3cncn3)cc12 [RIZATRIPTAN]
> 30 µM | > 10 µM | > 30 µM | > 30 µM | > 10 µM |  |  | > 30 µM | > 10 µM |  | Nc1ccc(S(=O)(=O)Nc2nccs2)cc1 [SULFATHIAZOLE]
2.5 µM | > 30 µM | 7.8 µM |  | 10.3 µM | 1.7 µM |  | 5 µM | > 10 µM | 6.9 µM | CCN(CC)CCNC(=O)c1c(C)[nH]c(/C=C2\C(=O)Nc3ccc(F)cc32)c1C [SUNITINIB]
> 30 µM |  | > 30 µM | > 30 µM |  | > 30 µM | > 30 µM | > 30 µM |  |  | CC(C)(C)NCC(O)c1cc(O)cc(O)c1 (stereo not drawn) [TERBUTALINE]
